{"source": "patent US9084770B2", "about": "“Modulation of insulin like growth factor I receptor expression in cancer” (Antisense Therapeutics, Ltd., priority 2008, dated 2015)", "key": {"[1]": {"tested_on": "LNCaP cells", "assay": "LNCaP cell viability, crystal violet assay", "type": "cell-based, human", "settings": "three days after treatment", "experimental": "(§1) Established methods were used to test the activity of IGF-IR antisense oligonucleotide on LNCaP and PC-3 cell growth (crystal violet assay) and apoptosis (FACS). Dose- and sequence-specific suppression of IGF-IR mRNA and protein expression in ATL1101-treated LNCaP and PC3 PC cell lines in vitro were observed by QT-PCR and western blotting. Effects of the IGF-IR antisense oligonucleotide on various putative targets, including IGF-IR and downstream targets were evaluated using western blotting.\n(§2) Cells were transfected with indicated concentrations of ATL1101, control oligodeoxynucleotides or oligofectamine as in FIGS. 1A(i)-1A(ii). Three days after treatment, cell viability was determined by crystal violet assay. Viable cell density was normalized to that of cells treated with oligofectamine. Points, means of triplicate analysis; bars, SE. *, p<0.05 differs from control oligodeoxynucleotide treatment group. **, p<0.01 differs from control oligodeoxynucleotide treatment group by Student's t test."}, "[2]": {"tested_on": "LNCaP cells", "assay": "LNCaP cell cycle and apoptosis, flow cytometry with propidium iodide", "type": "cell-based, human", "settings": "100 nM", "experimental": "as §1\n(§3) The Effect of IGF-IR silencing with IGF-IR antisense oligonucleotide (ATL1101) on LNCaP and PC3 cell apoptosis and cell cycle is shown in FIGS. 4A(i)-(ii), 4B, 4C(i)-(ii), and Table 2. Cells were transfected with indicated concentrations of ATL1101, control oligodeoxynucleotide or oligofectamine as in FIGS. 1A(i)-1B(ii). Two days after treatment, cell cycle analysis was determined by flow cytometry using propidium iodide staining. […] In FIGS. 4C(i)-(ii), LNCaP (FIG. 4C (i)) or PC-3 (FIG. 4C (ii)) cells were transfected with indicated concentration of ATL1101 or control oligodeoxynucleotide (ISIS 306064) for two days. Cells were then cultured in FBS media for one day and in serum-free media for one day. Whole cell lysates (30 μg) were subjected to SDS-PAGE and immunoblotted to assess Cyclin D1, Cyclin E, p-RB, total Rb, and p27 protein levels. Oligo, oligofectamine treated cells only."}, "[3]": {"tested_on": "PC3 tumors", "assay": "PC-3 xenograft with Paclitaxel, mean tumor volume", "type": "in vivo, mice", "settings": "15 mg/kg i.p. oligonucleotide plus Paclitaxel", "text": "In vivo treatments in a PC-3 xenograft model were done substantially as described by Zellweger et al., 2001. PC3 cells (2×10^6 cells) were xenografted by subcutaneous injection into recipient 6-8 week-old athymic nude (nu/nu) mice. When tumors reached 200 mm^3, mice were randomly assigned to one of two arms for treatment with 2′-MOE-modified IGF-IR antisense oligonucleotide (ATL1101) plus Paclitaxel, or mismatch control oligodeoxynucleotide ISIS 306064 plus Paclitaxel. Each experimental group consisted of 10 mice. After randomization, 15 mg/kg of ATL1101 antisense oligonucleotide or mismatch control oligonucleotide were injected intraperitoneal (i.p.) into each mouse once daily for the first 5 days and 3 times a week (every other day) thereafter for 7 weeks. On days 7, 9, 11, and on days 21, 23, and 25, 0.5 mg of polymeric micellar Paclitaxel was administered once daily by i.v. injection. Mean Tumor volume was measured once weekly for 8 weeks and calculated by the formula length×width×depth×0.5236.\nIn PC3 mice, after 5 weeks of treatment, mean tumor size in mice treated with Paclitaxel and mismatch control oligodeoxynucleotide was 326+/−40.9 mm^3 compared with 175+/−20.1 mm^3 in mice treated with Paclitaxel and ATL1101, or 53.7% of control (p<0.01). After 8 weeks of treatment, mean tumor size in mice treated with Paclitaxel and mismatch control oligodeoxynucleotide was 1417+/−222 mm^3 compared with 507+/−79.3 mm^3 in mice treated with Paclitaxel and ATL1101, or 35.8% of control (p<0.01)."}, "[4]": {"tested_on": "PC3 cells", "assay": "PC3 cell cycle and apoptosis, flow cytometry with propidium iodide", "type": "cell-based, human", "settings": "PC3, FBS condition, 200 nM", "experimental": "as §1, §3"}, "[5]": {"tested_on": "IGF-IRβ, p-AKT, p-ERK1/2, cleaved PARP", "assay": "Intracellular signaling in LNCaP and PC3 cells, immunoblot", "type": "cell-based, human", "settings": "100 nM", "experimental": "The suppression of intracellular signaling in IGF-IR antisense oligonucleotide-treated LNCaP (FIG. 3A) and PC3 (FIG. 3B) in vitro is shown in FIGS. 3A-3B. LNCaP or PC3 cells were transfected with 100 nM ATL1101 or control oligodeoxynucleotide (ISIS 306064) for two days. Cells were then cultured in FBS media for one day and in serum-free media for one day. Whole cell lysates (30 μg) were subjected to SDS-PAGE and immunoblotted to assess IGF-IRβ, p-AKT, total AKT, p-ERK1/2, total ERK1/2, cleaved PARP, and vinculin protein levels. Oligo, oligofectamine treated cells only."}, "[6]": {"tested_on": "IGF-IR mRNA", "assay": "IGF-IR mRNA expression in transfected LNCaP and PC-3 cells, quantitative RT-PCR", "type": "cell-based, human", "settings": "LNCaP and PC-3 cells, maximal doses tested", "experimental": "as §1\nFIGS. 1A(i)-1A(ii) show the sequence-specific and dose-dependent suppression of IGF-IR mRNA expression levels by ATL1101 in LNCaP (FIG. 1A (i)) and PC-3 (FIG. 1A (ii)) cells. […] One day after treatment, total RNA was extracted, and IGF-IR mRNA expression was analyzed by quantitative RT-PCR. IGF-IR mRNA levels were normalized to levels of GAPDH mRNA and expressed here as mean±SE. ***, p<0.001 differ from control (oligofectamine only) by Student's t test. “Control” cells were treated with oligofectamine only. In LNCaP cells, IGF-IR expression was >70% suppressed by 10 nM ATL1101 and >90% at 200 nM ATL1101. In PC3 cells, IGF-IR expression was suppressed ˜40% at 10 nM ATL1101, >50% at 50 nM ATL1101 and ˜80% at 200 nM. Control oligodeoxynucleotide (ISIS 306064) did suppress IGF-IR mRNA expression but by less than 25% at maximal doses tested"}, "[7]": {"tested_on": "PC3 cells", "assay": "PC3 cell viability, crystal violet assay", "type": "cell-based, human", "settings": "three days after treatment", "experimental": "as §1, §2"}, "[8]": {"tested_on": "insulin receptor IR-A, IR-B, IR-β protein", "assay": "Insulin receptor transcripts and protein in PC3 Ptx-R cells", "type": "cell-based, human", "text": "(§4) The PC3 Ptx-R cells retain sensitivity to ATL1101-induced IGF-IR down regulation at the mRNA and protein level as shown in FIGS. 11A-C. […] ATL1101 and the control oligodeoxynucleotide ISIS 306064 had no effect on either of the alternative spliced isoform transcripts of the insulin receptor, IR-A, IR-B or IR-β protein or vinculin protein levels."}, "[9]": {"tested_on": "IGF-IR mRNA", "assay": "IGF-IR mRNA in PC3 Ptx-R cells", "type": "cell-based, human", "settings": "10 to 200 nM, compared to oligofectamine transfection reagent", "text": "as §4"}, "[10]": {"tested_on": "IGF-IRβ subunit protein", "assay": "IGF-IRβ subunit protein in PC3 Ptx-R cells", "type": "cell-based, human", "settings": "10 to 200 nM, compared to oligofectamine transfection reagent", "text": "as §4"}, "[11]": {"tested_on": "Ptx-R PC3 cells", "assay": "Ptx-R PC3 viable cells after transfection with or without Paclitaxel", "type": "cell-based, human", "settings": "100 nM Paclitaxel and 25 nM oligonucleotide", "experimental": "The number of viable PC3 and PtxR PC3 cells was determined 72 hours after the second transfection.\n[…] The number of viable cells remaining was determined 72 hours after the second transfection treatment. ATL1101 treatment enhances the Ptx-R sensitivity to Paclitaxel under standard culture conditions. For example, there was approximately 45% cell viability with 100 nM Paclitaxel and 25 nM control oligodeoxynucleotide whereas, only 25 nM Paclitaxel is needed in the presence of 25 nM ATL1101 to produce the same reduction in cell viability."}}}
{"substance": "ISIS 306064: 8 nucleotide mismatch control oligonucleotide; Negative Control ODN (CCAATGATAACAAACGCGGA; chemistry not given here) [reference compound]", "values": [{"measurement": "cytotoxic effect on cell viability", "setting": "[1]", "result": "dose-dependent cytotoxic effect"}, {"measurement": "% of total cells, G0/G1", "setting": "[2]; CSS condition", "result": 70.1, "unit": "%"}, {"measurement": "% of total cells, G2/M", "setting": "[2]; CSS condition", "result": 4.4, "unit": "%"}, {"measurement": "% of total cells, S", "setting": "[2]; CSS condition", "result": 3.8, "unit": "%"}, {"measurement": "% of total cells, Sub G0/G1", "setting": "[2]; CSS condition", "result": 21.7, "unit": "%"}, {"measurement": "subG0/G1 + G0/G1:S + G2/M", "setting": "[2]; CSS condition", "result": 11.2}, {"measurement": "% of total cells, G0/G1", "setting": "[2]; FBS condition", "result": 65.4, "unit": "%"}, {"measurement": "% of total cells, G2/M", "setting": "[2]; FBS condition", "result": 12.6, "unit": "%"}, {"measurement": "% of total cells, S", "setting": "[2]; FBS condition", "result": 11.2, "unit": "%"}, {"measurement": "subG0/G1 + G0/G1:S + G2/M", "setting": "[2]; FBS condition", "result": 3.2}, {"measurement": "% of total cells, Sub G0/G1", "setting": "[2]; FBS condition, two days after treatment", "result": 10.8, "unit": "%"}, {"measurement": "mean tumor size", "setting": "[3]; after 5 weeks of treatment", "result": "326+/−40.9 mm^3"}, {"measurement": "mean tumor size", "setting": "[3]; after 8 weeks of treatment", "result": "1417+/−222 mm^3"}, {"measurement": "% of total cells, G0/G1", "setting": "[4]", "result": 58.5, "unit": "%"}, {"measurement": "% of total cells, G2/M", "setting": "[4]", "result": 18.2, "unit": "%"}, {"measurement": "% of total cells, S", "setting": "[4]", "result": 13.7, "unit": "%"}, {"measurement": "% of total cells, Sub G0/G1", "setting": "[4]", "result": 9.6, "unit": "%"}, {"measurement": "subG0/G1 + G0/G1:S + G2/M", "setting": "[4]", "result": 2.1}, {"measurement": "IGF-IR expression, down-stream kinase signaling and induction of PARP cleavage versus oligofectamine-treated cells", "setting": "[5]", "result": "indistinguishable"}, {"measurement": "suppression of IGF-IR mRNA expression", "setting": "[6]", "result": "less than 25%"}, {"measurement": "cytotoxic effect on cell viability", "setting": "[7]", "result": "dose-dependent cytotoxic effect"}, {"measurement": "insulin receptor IR-A, IR-B transcripts or IR-β protein levels", "setting": "[8]", "result": "no effect"}, {"measurement": "IGF-IR mRNA levels", "setting": "[9]", "result": "no effect"}, {"measurement": "IGF-IRβ subunit protein levels", "setting": "[10]", "result": "no effect"}, {"measurement": "cell viability", "setting": "[11]", "result": "approximately 45%"}]}
